Test results published in patent US20240050428A1 (Cullgen (Shanghai), Inc., priority 2020, published 2024).
Like-named read-outs stand apart in the source and are kept apart here.

What was measured:
[1] = system: MV4;11 cells; test: Cell viability assay (CellTiter-Glo) in MV4;11 cells, alone or with gilteritinib; format: cell-based; details: Homo sapiens, MV4-11, 72 h, MV4;11 cells, three days, CellTiter-Glo, read-out: MV4
[2] = system: MOLM-13 cells; test: Cell viability assay (CellTiter-Glo) in MOLM-13 cells, alone or with gilteritinib; format: cell-based; details: Homo sapiens, MOLM-13, 72 h, MOLM-13 cells, three days, CellTiter-Glo
[3] = compound alone (without gilteritinib), 11 IC50
[4] = compound with gilteritinib 10 nM, 11 IC50 gilteritinib
[5] = compound alone (without gilteritinib), read-out: MOLM-13 IC50
[6] = compound with gilteritinib 20 nM, read-out: MOLM-13 IC50 gilteritinib

Row | SMILES | IC50 [1, 3] [nM] | IC50 [1, 4] [nM] | IC50 [2, 5] [nM] | IC50 [2, 6] [nM]
1 | Cc1nn([C@H]2C[C@@H](CCCNc3ccc4c(c3)C(=O)N(C3CCC(=O)NC3=O)C4=O)C2)cc1-c1cnc2cc(N3CCNCC3)ccc2n1 (stereo partly drawn) [GS-434, 2-(2,6-dioxopiperidin-3-yl)-5-((3-(cis-3-(3-methyl-4-(6-(piperazin-1-yl)quinoxalin-2-yl)-1H-pyrazol-1-yl)cyclobutyl)propyl)amino)isoindoline-1,3-dione] | < 10 | < 10 | 10 to 100 | < 10
2 | CN1CCC(c2cnn([C@H]3C[C@H](CCCNc4ccc5c(c4)C(=O)N(C4CCC(=O)NC4=O)C5=O)C3)c2)CC1 (stereo partly drawn) [GS-435, 2-(2,6-dioxopiperidin-3-yl)-5-((3-(trans-3-(4-(1-methylpiperidin-4-yl)-1H-pyrazol-1-yl)cyclobutyl)propyl)amino)isoindoline-1,3-dione] | 100 to 1000 | > 1000 | > 1000 | 100 to 1000
3 | CN1CCN(c2nccc(-c3cnn([C@H]4C[C@H](CCCNc5ccc6c(c5)C(=O)N(C5CCC(=O)NC5=O)C6=O)C4)c3)n2)CC1 (stereo partly drawn) [GS-436, 2-(2,6-dioxopiperidin-3-yl)-5-((3-(trans-3-(4-(2-(4-methylpiperazin-1-yl)pyrimidin-4-yl)-1H-pyrazol-1-yl)cyclobutyl)propyl)amino)isoindoline-1,3-dione] | > 1000 | 100 to 1000 | > 1000 | 100 to 1000
4 | O=C1CCC(N2C(=O)c3ccc(NCCCC4CC(n5cc(N6CCOCC6)cn5)C4)cc3C2=O)C(=O)N1 (centres unmarked) [GS-437, 2-(2,6-dioxopiperidin-3-yl)-5-((3-(3-(4-morpholino-1H-pyrazol-1-yl)cyclobutyl)propyl)amino)isoindoline-1,3-dione] | > 1000 | > 1000 | > 1000 | 100 to 1000
5 | O=C1CCC(N2C(=O)c3ccc(NC[C@H]4C[C@H](n5cc(N6CCOCC6)c(C6CC6)n5)C4)cc3C2=O)C(=O)N1 (stereo partly drawn) [GS-438, 5-(((trans-3-(3-cyclopropyl-4-morpholino-1H-pyrazol-1-yl)cyclobutyl)methyl)amino)-2-(2,6-dioxopiperidin-3-yl)isoindoline-1,3-dione] | > 1000 | > 1000 | > 1000 | 100 to 1000
6 | Cc1cccc(-c2cn([C@H]3C[C@H](CNc4ccc5c(c4)C(=O)N(C4CCC(=O)NC4=O)C5=O)C3)nc2C(F)(F)F)n1 (stereo partly drawn) [GS-439, 2-(2,6-dioxopiperidin-3-yl)-5-(((trans-3-(4-(6-methylpyridin-2-yl)-3-(trifluoromethyl)-1H-pyrazol-1-yl)cyclobutyl)methyl)amino)isoindoline-1,3-dione] | 100 to 1000 | 10 to 100 | > 1000 | 10 to 100
7 | CN1CCN(c2cccc(-c3cn([C@H]4C[C@H](CNc5ccc6c(c5)C(=O)N(C5CCC(=O)NC5=O)C6=O)C4)nc3C3CC3)n2)CC1 (stereo partly drawn) [GS-440, 5-(((trans-3-(3-cyclopropyl-4-(6-(4-methylpiperazin-1-yl)pyridin-2-yl)-1H-pyrazol-1-yl)cyclobutyl)methyl)amino)-2-(2,6-dioxopiperidin-3-yl)isoindoline-1,3-dione] | 100 to 1000 | 100 to 1000 | 100 to 1000 | 100 to 1000
8 | O=C1CCC(N2C(=O)c3ccc(NC[C@H]4C[C@H](n5cc(-c6cccc(NC7CCOCC7)n6)c(C6CC6)n5)C4)cc3C2=O)C(=O)N1 (stereo partly drawn) [GS-441, 5-(((trans-3-(3-cyclopropyl-4-(6-((tetrahydro-2H-pyran-4-yl)amino)pyridin-2-yl)-1H-pyrazol-1-yl)cyclobutyl)methyl)amino)-2-(2,6-dioxopiperidin-3-yl)isoindoline-1,3-dione] | > 1000 | 10 to 100 | 10 to 100 | 100 to 1000
9 | O=C1CCC(N2C(=O)c3ccc(NC[C@H]4C[C@H](n5nc(C6CC6)c6ccccc65)C4)cc3C2=O)C(=O)N1 (stereo partly drawn) [GS-442, 5-(((trans-3-(3-cyclopropyl-1H-indazol-1-yl)cyclobutyl)methyl)amino)-2-(2,6-dioxopiperidin-3-yl)isoindoline-1,3-dione] | < 10 | < 10 | 10 to 100 | < 10
10 | O=C1CCC(N2C(=O)c3ccc(NCCC[C@H]4C[C@H](n5cc(-c6ccc(Cl)cn6)cn5)C4)cc3C2=O)C(=O)N1 (stereo partly drawn) [GS-443, 5-((3-(trans-3-(4-(5-chloropyridin-2-yl)-1H-pyrazol-1-yl)cyclobutyl)propyl)amino)-2-(2,6-dioxopiperidin-3-yl)isoindoline-1,3-dione] | 100 to 1000 | 100 to 1000 | < 10 | > 1000
11 | Cc1cccc(-c2cn([C@H]3C[C@H](CNc4ccc5c(c4)C(=O)N(C4CCC(=O)NC4=O)C5=O)C3)nc2C(F)F)n1 (stereo partly drawn) [GS-444, 5-(((trans-3-(3-(difluoromethyl)-4-(6-methylpyridin-2-yl)-1H-pyrazol-1-yl)cyclobutyl)methyl)amino)-2-(2,6-dioxopiperidin-3-yl)isoindoline-1,3-dione] | 10 to 100 | < 10 | 10 to 100 | < 10
12 | O=C1CCC(N2C(=O)c3ccc(NC[C@H]4C[C@H](n5cc(-c6cccc(N[C@H]7CC[C@@H](O)CC7)n6)c(C6CC6)n5)C4)cc3C2=O)C(=O)N1 (stereo partly drawn) [GS-445, 5-(((trans-3-(3-cyclopropyl-4-(6-((cis-4-hydroxycyclohexyl)amino)pyridin-2-yl)-1H-pyrazol-1-yl)cyclobutyl)methyl)amino)-2-(2,6-dioxopiperidin-3-yl)isoindoline-1,3-dione] | 100 to 1000 | 100 to 1000 | 100 to 1000 | 100 to 1000
13 | Cc1ccc(-c2cnn([C@H]3C[C@H](CCCNc4ccc5c(c4)C(=O)N(C4CCC(=O)NC4=O)C5=O)C3)c2)nc1 (stereo partly drawn) [GS-446, 2-(2,6-dioxopiperidin-3-yl)-5-((3-(trans-3-(4-(5-methylpyridin-2-yl)-1H-pyrazol-1-yl)cyclobutyl)propyl)amino)isoindoline-1,3-dione] | 100 to 1000 | 10 to 100 | > 1000 | 10 to 100
14 | O=C1CCC(N2C(=O)c3ccc(NCCC[C@H]4C[C@H](n5cc(-c6cccc(C7CC7)n6)cn5)C4)cc3C2=O)C(=O)N1 (stereo partly drawn) [GS-447, 5-((3-(trans-3-(4-(6-cyclopropylpyridin-2-yl)-1H-pyrazol-1-yl)cyclobutyl)propyl)amino)-2-(2,6-dioxopiperidin-3-yl)isoindoline-1,3-dione] | 10 to 100 | < 10 | 100 to 1000 | 10 to 100
15 | O=C1CCC(N2C(=O)c3ccc(NC[C@H]4C[C@H](n5cc(N6CCCCC6)c(C6CC6)n5)C4)cc3C2=O)C(=O)N1 (stereo partly drawn) [GS-448, 5-(((trans-3-(3-cyclopropyl-4-(piperidin-1-yl)-1H-pyrazol-1-yl)cyclobutyl)methyl)amino)-2-(2,6-dioxopiperidin-3-yl)isoindoline-1,3-dione] | 100 to 1000 | 10 to 100 | > 1000 | 100 to 1000
16 | Cc1cccc(-c2cn([C@H]3C[C@H](CNc4ccc5c(c4)C(=O)N(C4CCC(=O)NC4=O)C5=O)C3)nc2C)n1 (stereo partly drawn) [GS-449, 2-(2,6-dioxopiperidin-3-yl)-5-(((trans-3-(3-methyl-4-(6-methylpyridin-2-yl)-1H-pyrazol-1-yl)cyclobutyl)methyl)amino)isoindoline-1,3-dione] | > 1000 | > 1000 | > 1000 | > 1000
17 | O=C1CCC(N2C(=O)c3ccc(NCCCCn4cc(-c5cnc6ccccc6n5)c(C5CC5)n4)cc3C2=O)C(=O)N1 (centres unmarked) [GS-450, 5-((4-(3-cyclopropyl-4-(quinoxalin-2-yl)-1H-pyrazol-1-yl)butyl)amino)-2-(2,6-dioxopiperidin-3-yl)isoindoline-1,3-dione] | 10 to 100 | 10 to 100 | 100 to 1000 | 10 to 100
18 | O=C1CCC(N2C(=O)c3ccc(NCCC[C@H]4C[C@H](n5cc(-c6cccc(N7CCC7)n6)cn5)C4)cc3C2=O)C(=O)N1 (stereo partly drawn) [GS-451, 5-((3-(trans-3-(4-(6-(azetidin-1-yl)pyridin-2-yl)-1H-pyrazol-1-yl)cyclobutyl)propyl)amino)-2-(2,6-dioxopiperidin-3-yl)isoindoline-1,3-dione] | 10 to 100 | 10 to 100 | 100 to 1000 | 10 to 100
19 | O=C1CCC(N2C(=O)c3ccc(NC[C@H]4C[C@H](n5cc(N6CCC(O)CC6)c(C6CC6)n5)C4)cc3C2=O)C(=O)N1 (stereo partly drawn) [GS-452, 5-(((trans-3-(3-cyclopropyl-4-(4-hydroxypiperidin-1-yl)-1H-pyrazol-1-yl)cyclobutyl)methyl)amino)-2-(2,6-dioxopiperidin-3-yl)isoindoline-1,3-dione] | > 1000 | > 1000 | > 1000 | > 1000
20 | CC(C)c1cccc(-c2cnn([C@H]3C[C@H](CCCNc4ccc5c(c4)C(=O)N(C4CCC(=O)NC4=O)C5=O)C3)c2)n1 (stereo partly drawn) [GS-453, 2-(2,6-dioxopiperidin-3-yl)-5-((3-(trans-3-(4-(6-isopropylpyridin-2-yl)-1H-pyrazol-1-yl)cyclobutyl)propyl)amino)isoindoline-1,3-dione] | 10 to 100 | 10 to 100 | 100 to 1000 | 10 to 100
